Experimental data taken from patent publication US20200263231A1, “Fluorogenic dyes for high sensitivity DNA detection” (LIFE TECHNOLOGIES CORPORATION, priority 2016, published 2020).

Experiments:
[1] = UV/VIS absorption spectra; assay type: physicochemical; conditions: 10 μM compound in 50 mM potassium phosphate buffer (pH 7.0)
Description: The UV/VIS absorption spectra were obtained with 10 μM compound solution in 50 mM potassium phosphate buffer (pH 7.0) in a final volume of 3 mL. Measurements were carried out using a Lambda 245 spectrophotometer from Perkin Elmer.

calf thymus DNA = test: Fluorescence emission and enhancement of compounds bound to calf thymus DNA; assay type: binding; conditions: 0.8 μM compound with 500 ng/ml calf thymus DNA in TE buffer; for Emission Max: excited at 488 nm; for Fluorescence Enhancement: emission area 500-715 nm compared to compound 1, defined as 1000-fold
Description: Compounds 1-65 were prepared and their fluorescence absorption and emission characteristics were measured. Intrinsic fluorescence of the compounds only (without DNA) was negligible. Emission spectra for the compounds bound to dsDNA were obtained by incubating 0.8 μM compound with 500 ng/ml calf thymus DNA in TE buffer (10 mM Tris-HCl, pH 7.5, 1 mM EDTA) in a final volume of 3 ml. Measurements were made using PerkinElmer LS 55 (F-11) Fluorescence spectrometer. Samples were excited at 488 nm and fluorescence emission was measured with emission slit widths of 2.5 nm. Absorption maxima were determined according to standard techniques.
Fluorescence enhancement measurements of the compounds were obtained by incubating 0.8 μM compound with 500 ng/ml calf thymus DNA with compounds at a final concentration of 0.8 μM in TE buffer. Compound 1 was used as an internal standard to control for variability (e.g., in excitation light intensity). The area-under-curve of fluorescence emission spectra from 500 nm to 715 nm was calculated, and compared to that of compound 1, which was defined as having 1000-fold fluorescence enhancement relative to fluorescence of the compound alone.

Compound	Absorbance Max [1] [nm]	Emission Max (calf thymus DNA) [nm]	Fluorescence Enhancement (calf thymus DNA) [fold]
CCCCN(CCC[N+](C)(C)Cc1ccccc1)C1=CC(=Cc2sc3ccccc3[n+]2C)c2ccc(OC)cc2N1c1ccccc1.[I-].[I-] [Compound 39]	490	517	1080
CCCN(CCC[N+](C)(C)CCO)C1=CC(=Cc2sc3ccccc3[n+]2C)c2ccc(OC)cc2N1c1ccccc1.[I-].[I-] [Compound 45]	494	517	1093
CCN(CCC[N+](C)(C)CCO)C1=C/C(=C/c2sc3ccccc3[n+]2C)c2ccc(OC)cc2N1c1ccccc1 [Compound 52]	490	519	1031
CCCCN(CCC[N+](C)(C)CCC)C1=C/C(=C/c2sc3ccccc3[n+]2C)c2ccccc2N1c1ccccc1.[I-].[I-] [Compound 11]	496	524	903
CCCCN(CCC[N+](C)(C)CCO)C1=C/C(=C/c2sc3ccccc3[n+]2C)c2ccccc2N1c1ccccc1.[I-].[I-] [Compound 12]	496	525	937
CCN(CC[N+](C)(C)C)C1=C/C(=C/c2sc3ccccc3[n+]2C)c2ccccc2N1c1ccccc1.[Cl-].[I-] [Compound 29]	506	528	648
CCCCN(CCC[N+](C)(C)C)C1=C/C(=C/c2sc3ccccc3[n+]2C)c2ccccc2N1c1ccccc1.[I-].[I-] [Compound 9]	496	525	908
CN(CCC[N+](C)(C)C)C1=C/C(=C/c2sc3ccccc3[n+]2C)c2ccccc2N1c1ccccc1.[I-].[I-] [Compound 22]	497	520	639
CC[N+](C)(C)CCCN(C)C1=C/C(=C/c2sc3ccccc3[n+]2C)c2ccccc2N1c1ccccc1.[I-].[I-] [Compound 23]	498	524	622
CCCN(CCC[N+](C)(C)Cc1cccc(OC)c1)C1=C/C(=C/c2sc3ccccc3[n+]2C)c2ccccc2N1c1ccccc1.[Br-].[Cl-] [Compound 7]	502	522	978
CCCCN(CCC[N+](C)(C)CC)C1=C/C(=C/c2sc3ccccc3[n+]2C)c2ccccc2N1c1ccccc1.[I-].[I-] [Compound 10]	496	526	926
CCN(CCC[N+](C)(C)CC)C1=C/C(=C/c2sc3ccccc3[n+]2C)c2ccccc2N1c1ccccc1.[I-].[I-] [Compound 17]	496	523	865
CCC[N+](C)(C)CCCN(C)C1=C/C(=C/c2sc3ccccc3[n+]2C)c2ccccc2N1c1ccccc1.[I-].[I-] [Compound 24]	497	522	630
CCN(CC[N+](C)(C)CC)C1=C/C(=C/c2sc3ccccc3[n+]2C)c2ccc(OC)cc2N1c1ccccc1.[I-].[I-] [Compound 57]	496	521	877
CCC[N+](C)(C)CCN(CC)C1=C/C(=C/c2sc3ccccc3[n+]2C)c2ccccc2N1c1ccccc1.[I-].[I-] [Compound 31]	506	527	642
CN(C)CCCN(C)C1=C/C(=C/c2sc3ccccc3[n+]2C)c2ccccc2N1c1ccccc1.[I-] [Compound 21]	491	522	639
CCN(CC[N+](C)(C)Cc1cccc(OC)c1)C1=C/C(=C/c2sc3ccccc3[n+]2C)c2ccccc2N1c1ccccc1.[Br-].[I-] [Compound 33]	507	526	652
CCN(CCC[N+](C)(C)Cc1cccc(OC)c1)C1=C/C(=C/c2sc3ccccc3[n+]2C)c2ccccc2N1c1ccccc1.[Br-].[I-] [Compound 20]	497	523	871
CCCCN(CCC[N+](C)(C)CCC)C1=CC(=Cc2sc3ccccc3[n+]2C)c2ccc(OC)cc2N1c1ccccc1.[I-].[I-] [Compound 37]	489	519	1089
CCCN(CCC[N+](C)(C)CCC)C1=CC(=Cc2sc3ccccc3[n+]2C)c2ccc(OC)cc2N1c1ccccc1.[I-].[I-] [Compound 44]	494	518	1101
CN(CCC[N+](C)(C)Cc1ccccc1)C1=C/C(=C/c2sc3ccccc3[n+]2C)c2ccccc2N1c1ccccc1.[I-].[I-] [Compound 26]	498	521	653
CCCN(CCC[N+](C)(C)CCC)C1=C/C(=C/c2sc3ccccc3[n+]2C)c2ccccc2N1c1ccccc1.[I-].[I-] [Compound 4]	501	524	925
C[n+]1c(/C=C2/C=C(n3ccnc3)N(c3ccccc3)c3ccccc32)sc2ccccc21.[I-] [Compound 61]	514	540	26
CCN(CC[N+](C)(C)CCO)C1=C/C(=C\c2sc3ccccc3[n+]2C)c2ccc(OC)cc2N1c1ccccc1.[I-].[I-] [Compound 59]	498	520	863
CCN(CC[N+](C)(C)C)C1=C/C(=C/c2sc3ccccc3[n+]2C)c2ccc(OC)cc2N1c1ccccc1.[I-].[I-] [Compound 56]	499	523	894
CCN(CCN(C)C)C1=C/C(=C/c2sc3ccccc3[n+]2C)c2ccc(OC)cc2N1c1ccccc1.[I-] [Compound 55]	496	520	908
C[n+]1ccn(C2=C/C(=C/c3sc4ccccc4[n+]3C)c3ccccc3N2c2ccccc2)c1.[I-].[I-] [Compound 62]	519		0.3
C[n+]1c(/C=C2/C=C(CCC[N+](C)(C)C)N(c3ccccc3)c3ccccc32)sc2ccccc21 [Compound 65]	527	530	136
CCN(CCCN(C)C)C1=C/C(=C/c2sc3ccccc3[n+]2C)c2ccccc2N1c1ccccc1.[I-] [Compound 15]	495	524	864
CCCCN(CCC[N+](C)(C)Cc1cccc(OC)c1)C1=CC(=Cc2sc3ccccc3[n+]2C)c2ccc(OC)cc2N1c1ccccc1.[Br-].[I-] [Compound 40]	490	520	1050
